Measurements published in publication PMC5218480 (PLoS ONE, 2017).

System: MV-4-11 cells
Assay: Gene expression microarray analysis (Affymetrix PrimeView) and GSEA
Format: cell-based, human
Set-up: RFU PODN (11730768_x_at) / Fold change /veh PODN (11730768_x_at) / RFU LINC00158 (11744669_a_at) / Fold change /veh LINC00158 (11744669_a_at) / RFU DUSP10 (11751237_a_at) / Fold change /veh DUSP10 (11751237_a_at) / RFU ID3 (11757404_x_at) / Fold change /veh ID3 (11757404_x_at) / RFU PLEKHG5 (11737974_s_at) / Fold change /veh PLEKHG5 (11737974_s_at) / RFU LRRC4B (11730491_at) / Fold change /veh LRRC4B (11730491_at) / RFU GIMAP4 (11747438_a_at) / Fold change /veh GIMAP4 (11747438_a_at) / RFU KRT8 (11758183_x_at) / Fold change /veh KRT8 (11758183_x_at) / RFU CNN1 (11734310_a_at) / Fold change /veh CNN1 (11734310_a_at) / RFU VPS37D (11726825_at) / Fold change /veh VPS37D (11726825_at) / RFU C10orf10 (11716522_x_at) / Fold change /veh C10orf10 (11716522_x_at) / RFU KIR2DL2 /// KIR2DL4 /// KIR2DL5A /// KIR2DL5B /// KIR2DS1 /// KIR2DS2 /// KIR2DS3 /// KIR2DS4 /// KIR3DL3 /// KIR3DL3 /// KIR3DS1 (11738374_at) / Fold change /veh KIR2DL2 /// KIR2DL4 /// KIR2DL5A /// KIR2DL5B /// KIR2DS1 /// KIR2DS2 /// KIR2DS3 /// KIR2DS4 /// KIR3DL3 /// KIR3DL3 /// KIR3DS1 (11738374_at) / RFU C1QL1 (11718748_at) / Fold change /veh C1QL1 (11718748_at) / RFU TMPRSS4 (11747572_a_at) / Fold change /veh TMPRSS4 (11747572_a_at) / RFU HAMP (11756126_x_at) / Fold change /veh HAMP (11756126_x_at) / RFU RNFT2 (11725882_a_at) / Fold change /veh RNFT2 (11725882_a_at) / RFU NR4A2 (11747474_a_at) / Fold change /veh NR4A2 (11747474_a_at) / RFU ABCC12 (11746883_a_at) / Fold change /veh ABCC12 (11746883_a_at) / RFU TMEM136 (11760407_x_at) / Fold change /veh TMEM136 (11760407_x_at) / RFU CLDN22 /// WWC2 (11732394_at) / Fold change /veh CLDN22 /// WWC2 (11732394_at) / RFU HLA-DPB1 (11760878_x_at) / Fold change /veh HLA-DPB1 (11760878_x_at) / RFU SPINT1 (11716480_a_at) / Fold change /veh SPINT1 (11716480_a_at) / RFU GAP43 (11754022_s_at) / Fold change /veh GAP43 (11754022_s_at) / RFU A4GNT (11735810_at) / Fold change /veh A4GNT (11735810_at) / RFU PRB3 (11715151_x_at) / Fold change /veh PRB3 (11715151_x_at) / RFU TUBB4B (11761932_at) / Fold change /veh TUBB4B (11761932_at) / RFU CAPN14 (11732068_a_at) / Fold change /veh CAPN14 (11732068_a_at) / RFU TMCC2 (11721928_a_at) / Fold change /veh TMCC2 (11721928_a_at) / RFU IRGQ (11745062_a_at) / Fold change /veh IRGQ (11745062_a_at) / RFU FAM174B (11720279_a_at) / Fold change /veh FAM174B (11720279_a_at) / RFU TMPRSS4 (11748680_a_at) / Fold change /veh TMPRSS4 (11748680_a_at) / RFU FAM212B (11763350_a_at) / Fold change /veh FAM212B (11763350_a_at) / RFU PLEKHG5 (11743358_a_at) / Fold change /veh PLEKHG5 (11743358_a_at) / RFU ZSCAN30 (11745921_a_at) / Fold change /veh ZSCAN30 (11745921_a_at) / RFU CMKLR1 (11741424_a_at) / Fold change /veh CMKLR1 (11741424_a_at) / RFU LOC101060620 /// MAPK8IP1 (11723275_at) / Fold change /veh LOC101060620 /// MAPK8IP1 (11723275_at) / RFU SPTSSB (11747773_x_at) / Fold change /veh SPTSSB (11747773_x_at) / RFU PRSS12 (11739890_at) / Fold change /veh PRSS12 (11739890_at) / RFU BIN1 (11741810_x_at) / Fold change /veh BIN1 (11741810_x_at) / RFU WNT11 (11732464_a_at) / Fold change /veh WNT11 (11732464_a_at) / RFU C10orf10 (11716521_a_at) / Fold change /veh C10orf10 (11716521_a_at) / RFU C5orf56 (11738089_at) / Fold change /veh C5orf56 (11738089_at) / RFU CYB561 (11721691_x_at) / Fold change /veh CYB561 (11721691_x_at) / RFU ANKRD19P (11752326_a_at) / Fold change /veh ANKRD19P (11752326_a_at) / RFU OR2T12 /// OR2T33 /// OR2T8 (11738714_s_at) / Fold change /veh OR2T12 /// OR2T33 /// OR2T8 (11738714_s_at) / RFU VCAN (11748164_a_at) / Fold change /veh VCAN (11748164_a_at) / RFU JSRP1 (11732532_at) / Fold change /veh JSRP1 (11732532_at) / RFU KRTAP10-11 (11738290_x_at) / Fold change /veh KRTAP10-11 (11738290_x_at) / RFU MYO3A (11730013_a_at) / Fold change /veh MYO3A (11730013_a_at) / RFU EBF3 (11725865_a_at) / Fold change /veh EBF3 (11725865_a_at) / RFU CAMK2N1 (11719241_x_at) / Fold change /veh CAMK2N1 (11719241_x_at) / RFU C5orf56 (11738088_a_at) / Fold change /veh C5orf56 (11738088_a_at) / RFU OLFML3 (11715873_a_at) / Fold change /veh OLFML3 (11715873_a_at) / RFU LOC100653217 /// NTM (11731650_a_at) / Fold change /veh LOC100653217 /// NTM (11731650_a_at) / RFU MAPK11 (11762145_a_at) / Fold change /veh MAPK11 (11762145_a_at) / RFU FIZ1 (11724087_x_at) / Fold change /veh FIZ1 (11724087_x_at) / RFU OASL (11726364_x_at) / Fold change /veh OASL (11726364_x_at) / RFU SOX15 (11748057_x_at) / Fold change /veh SOX15 (11748057_x_at) / RFU CD79A (11719716_a_at) / Fold change /veh CD79A (11719716_a_at) / RFU HIST1H1D (11736915_at) / Fold change /veh HIST1H1D (11736915_at) / RFU CASKIN2 (11723855_a_at) / Fold change /veh CASKIN2 (11723855_a_at) / RFU LOC730098 (11760151_x_at) / Fold change /veh LOC730098 (11760151_x_at) / RFU OR4N2 (11742367_at) / Fold change /veh OR4N2 (11742367_at) / RFU PRRT2 (11749266_a_at) / Fold change /veh PRRT2 (11749266_a_at) / RFU SNX32 (11753110_a_at) / Fold change /veh SNX32 (11753110_a_at) / RFU CDHR5 (11726645_a_at) / Fold change /veh CDHR5 (11726645_a_at) / RFU RCAN1 (11760418_a_at) / Fold change /veh RCAN1 (11760418_a_at) / RFU FAM167A (11723789_a_at) / Fold change /veh FAM167A (11723789_a_at) / RFU FAM26E (11764081_at) / Fold change /veh FAM26E (11764081_at) / RFU ISYNA1 (11749810_s_at) / Fold change /veh ISYNA1 (11749810_s_at) / RFU ACY1 (11761880_at) / Fold change /veh ACY1 (11761880_at) / RFU 11764098_at / Fold change /veh 11764098_at / RFU SAMD14 (11745864_x_at) / Fold change /veh SAMD14 (11745864_x_at) / RFU NPB (11741838_a_at) / Fold change /veh NPB (11741838_a_at) / RFU TMPRSS6 (11731388_a_at) / Fold change /veh TMPRSS6 (11731388_a_at) / RFU KRTAP10-2 (11738614_at) / Fold change /veh KRTAP10-2 (11738614_at) / RFU ARHGAP8 /// PRR5-ARHGAP8 (11727945_x_at) / Fold change /veh ARHGAP8 /// PRR5-ARHGAP8 (11727945_x_at) / RFU KRTAP5-7 /// NADSYN1 (11734609_at) / Fold change /veh KRTAP5-7 /// NADSYN1 (11734609_at) / RFU RASL12 (11751679_a_at) / Fold change /veh RASL12 (11751679_a_at) / RFU CDKN2B (11736163_a_at) / Fold change /veh CDKN2B (11736163_a_at) / RFU PRF1 (11729649_at) / Fold change /veh PRF1 (11729649_at) / RFU, ZNF638 /// ZNF638-IT1 / Fold change vs veh, ZNF638 /// ZNF638-IT1 / RFU, PANK3 / Fold change vs veh, PANK3 / RFU, SH3YL1 / Fold change vs veh, SH3YL1 / RFU, ZEB2 / Fold change vs veh, ZEB2 / RFU, NRIP1 / Fold change vs veh, NRIP1 / RFU, PTTG1IP / Fold change vs veh, PTTG1IP / RFU, CAPN2 / Fold change vs veh, CAPN2 / RFU, MED14 / Fold change vs veh, MED14 / RFU, SNORA58 / Fold change vs veh, SNORA58 / RFU, C1orf63 / Fold change vs veh, C1orf63 / RFU, LRRFIP1 / Fold change vs veh, LRRFIP1 / RFU, NDUFAF7 / Fold change vs veh, NDUFAF7 / RFU, SLC12A2 / Fold change vs veh, SLC12A2 / RFU, IBTK / Fold change vs veh, IBTK / RFU, ESF1 / Fold change vs veh, ESF1 / Fold change vs veh, TMEM50B / RFU, TAOK1 / Fold change vs veh, TAOK1 / RFU, ACBD3 / Fold change vs veh, ACBD3 / RFU, TMA16 / Fold change vs veh, TMA16 / RFU, RWDD3 / Fold change vs veh, RWDD3 / RFU, BCAT1 / Fold change vs veh, BCAT1 / RFU, EDEM3 / Fold change vs veh, EDEM3 / RFU, TMEM33 / Fold change vs veh, TMEM33 / RFU, WDR75 / Fold change vs veh, WDR75 / RFU, AHCTF1 / Fold change vs veh, AHCTF1 / RFU, TFRC / Fold change vs veh, TFRC / RFU, ZDHHC17 / Fold change vs veh, ZDHHC17 / RFU, NOM1 / Fold change vs veh, NOM1 / RFU, ARL8B / Fold change vs veh, ARL8B / RFU, ZBTB11 / Fold change vs veh, ZBTB11 / RFU, TAMM41 / Fold change vs veh, TAMM41 / RFU, KIAA1704 /// LOC100996395 / Fold change vs veh, KIAA1704 /// LOC100996395 / RFU, ING1 / Fold change vs veh, ING1 / RFU, TRMT61B / Fold change vs veh, TRMT61B / RFU, FUBP3 / Fold change vs veh, FUBP3 / RFU, TP53 / Fold change vs veh, TP53 / RFU, TNKS2 / Fold change vs veh, TNKS2 / RFU, ZFP14 / Fold change vs veh, ZFP14 / RFU, ACTR2 / Fold change vs veh, ACTR2 / RFU, PPP3R1 / Fold change vs veh, PPP3R1 / RFU, PIK3R1 / Fold change vs veh, PIK3R1 / RFU, HNRNPA1 / Fold change vs veh, HNRNPA1 / RFU, RNF170 / Fold change vs veh, RNF170 / RFU, ZNF28 / Fold change vs veh, ZNF28 / RFU, RNGTT / Fold change vs veh, RNGTT / RFU, OGT / Fold change vs veh, OGT / RFU, BRD1 / Fold change vs veh, BRD1 / RFU, MARS / Fold change vs veh, MARS / RFU, ZNF655 / Fold change vs veh, ZNF655 / RFU, FAHD1 / Fold change vs veh, FAHD1 / RFU, BDP1 / Fold change vs veh, BDP1 / RFU, LRRCC1 / Fold change vs veh, LRRCC1 / RFU, ARID1A / Fold change vs veh, ARID1A / RFU, ZNF146 / Fold change vs veh, ZNF146 / RFU, ZNF330 / Fold change vs veh, ZNF330 / RFU, GPN3 / Fold change vs veh, GPN3 / RFU, C9orf123 / Fold change vs veh, C9orf123 / RFU, N4BP2L2 / Fold change vs veh, N4BP2L2 / RFU, ARFIP1 / Fold change vs veh, ARFIP1 / RFU, FAM179B / Fold change vs veh, FAM179B / RFU, BCL10 / Fold change vs veh, BCL10 / RFU, UHRF1BP1L / Fold change vs veh, UHRF1BP1L / RFU, BET1 / Fold change vs veh, BET1 / RFU, CNOT2 / Fold change vs veh, CNOT2 / RFU, ZNF268 / Fold change vs veh, ZNF268 / Fold change vs veh, ZNF507 / RFU, DGCR2 / Fold change vs veh, DGCR2 / RFU, WDSUB1 / Fold change vs veh, WDSUB1 / Fold change vs veh, HSP90B1 /// MIR3652 / RFU, ADSS / Fold change vs veh, ADSS / RFU, GK / Fold change vs veh, GK / RFU, ZNF148 / Fold change vs veh, ZNF148 / RFU, TAF9 / Fold change vs veh, TAF9 / RFU, SLC1A5 / Fold change vs veh, SLC1A5 / RFU, SLMO2 / Fold change vs veh, SLMO2 / RFU, ABCC4 / Fold change vs veh, ABCC4 / RFU, LOC101060439 /// RAP1B / Fold change vs veh, LOC101060439 /// RAP1B / RFU, RFX7 / Fold change vs veh, RFX7 / RFU, GTPBP10 / Fold change vs veh, GTPBP10 / RFU, CNEP1R1 / Fold change vs veh, CNEP1R1 / RFU, BIVM-ERCC5 /// ERCC5 / Fold change vs veh, BIVM-ERCC5 /// ERCC5 / RFU, ILF3 / Fold change vs veh, ILF3 / RFU 11762660_at / Fold change /veh 11762660_at / RFU VCAN (11757783_s_at) / Fold change /veh VCAN (11757783_s_at) / RFU DDX43 (11728927_at) / Fold change /veh DDX43 (11728927_at) / RFU KRT8 (11758188_x_at) / Fold change /veh KRT8 (11758188_x_at) / RFU NKD1 (11759106_at) / Fold change /veh NKD1 (11759106_at) / RFU SRD5A1 (11742802_a_at) / Fold change /veh SRD5A1 (11742802_a_at) / RFU TPSAB1 /// TPSB2 (11721975_s_at) / Fold change /veh TPSAB1 /// TPSB2 (11721975_s_at) / RFU GSTM3 (11746129_a_at) / Fold change /veh GSTM3 (11746129_a_at) / RFU IL23R (11737362_x_at) / Fold change /veh IL23R (11737362_x_at) / RFU TMEM51 (11727254_a_at) / Fold change /veh TMEM51 (11727254_a_at) / RFU PIWIL2 (11732686_x_at) / Fold change /veh PIWIL2 (11732686_x_at) / RFU ORM1 (11744905_x_at) / Fold change /veh ORM1 (11744905_x_at) / RFU CCDC152 (11743942_at) / Fold change /veh CCDC152 (11743942_at) / RFU ECM1 (11717891_a_at) / Fold change /veh ECM1 (11717891_a_at) / RFU IL23R (11748794_a_at) / Fold change /veh IL23R (11748794_a_at) / RFU TNFAIP8L3 (11732012_x_at) / Fold change /veh TNFAIP8L3 (11732012_x_at) / RFU MBOAT4 (11741988_at) / Fold change /veh MBOAT4 (11741988_at) / RFU 11764193_at / Fold change /veh 11764193_at / RFU TMEM53 (11763286_at) / Fold change /veh TMEM53 (11763286_at) / RFU MAGEB2 (11727129_at) / Fold change /veh MAGEB2 (11727129_at) / RFU TMEM200A (11744735_a_at) / Fold change /veh TMEM200A (11744735_a_at) / RFU CCDC152 (11751479_a_at) / Fold change /veh CCDC152 (11751479_a_at) / RFU FAM211A (11726209_a_at) / Fold change /veh FAM211A (11726209_a_at) / RFU RGS16 (11746705_a_at) / Fold change /veh RGS16 (11746705_a_at) / RFU VCAN (11755009_s_at) / Fold change /veh VCAN (11755009_s_at) / RFU RHOB (11743442_s_at) / Fold change /veh RHOB (11743442_s_at) / RFU RGS16 (11720943_a_at) / Fold change /veh RGS16 (11720943_a_at) / RFU RGS16 (11720944_at) / Fold change /veh RGS16 (11720944_at) / RFU, VPS4B / Fold change vs veh, VPS4B / RFU, CREB1 / Fold change vs veh, CREB1 / RFU, DNAJC13 / Fold change vs veh, DNAJC13 / RFU, GNAQ / Fold change vs veh, GNAQ / RFU, CDK5R1 / Fold change vs veh, CDK5R1 / RFU, ZRANB3 / Fold change vs veh, ZRANB3 / RFU, CUL4A / Fold change vs veh, CUL4A / RFU, CCNY / Fold change vs veh, CCNY / RFU, UFL1 / Fold change vs veh, UFL1 / RFU, COG3 / Fold change vs veh, COG3 / RFU, DIAPH2 / Fold change vs veh, DIAPH2 / RFU, SKA2 / Fold change vs veh, SKA2 / RFU, AFF3 / Fold change vs veh, AFF3 / RFU, LMF1 / Fold change vs veh, LMF1 / RFU, IPO11 / Fold change vs veh, IPO11 / RFU, DFFB / Fold change vs veh, DFFB / RFU, FOXP1 / Fold change vs veh, FOXP1 / RFU, CARD8 / Fold change vs veh, CARD8 / RFU, STRN3 / Fold change vs veh, STRN3 / RFU, ADK / Fold change vs veh, ADK / RFU, RASSF2 / Fold change vs veh, RASSF2 / RFU, WIPF1 / Fold change vs veh, WIPF1 / RFU, LARP1B / Fold change vs veh, LARP1B / RFU, RASA1 / Fold change vs veh, RASA1 / RFU, RB1 / Fold change vs veh, RB1 / RFU, PPFIA1 / Fold change vs veh, PPFIA1 / RFU, MAT2A / Fold change vs veh, MAT2A / RFU, CCT5 / Fold change vs veh, CCT5 / RFU, WDR92 / Fold change vs veh, WDR92 / RFU, CUX1 / Fold change vs veh, CUX1 / RFU, TTC7A / Fold change vs veh, TTC7A / RFU, TMEM135 / Fold change vs veh, TMEM135 / RFU, DEPTOR / Fold change vs veh, DEPTOR / RFU, CPM / Fold change vs veh, CPM / RFU, DNAJB6 / Fold change vs veh, DNAJB6 / RFU, CACNA2D3 / Fold change vs veh, CACNA2D3 / RFU, DTX4 / Fold change vs veh, DTX4 / RFU, TFCP2 / Fold change vs veh, TFCP2 / RFU, GMCL1 /// GMCL1P1 / Fold change vs veh, GMCL1 /// GMCL1P1 / RFU, AEBP2 / Fold change vs veh, AEBP2 / RFU, SNHG1 /// SNORD22 /// SNORD25 /// SNORD26 /// SNORD27 /// SNORD28 /// SNORD29 /// SNORD31 / Fold change vs veh, SNHG1 /// SNORD22 /// SNORD25 /// SNORD26 /// SNORD27 /// SNORD28 /// SNORD29 /// SNORD31 / Fold change (Aza/veh), C12orf56 (ProbeSet 11735607_a_at) / Fold change (ACY-1035/veh), C12orf56 (ProbeSet 11735607_a_at) / Fold change (Aza/veh), FGFR1OP (ProbeSet 11751329_s_at) / Fold change (ACY-1035/veh), FGFR1OP (ProbeSet 11751329_s_at) / Fold change (Aza/veh), VPS36 (ProbeSet 11739960_a_at) / Fold change (ACY-1035/veh), VPS36 (ProbeSet 11739960_a_at) / RFU SYPL1 (11715823_x_at) / Fold change /veh SYPL1 (11715823_x_at) / RFU IGFBP7 (11715501_s_at) / Fold change /veh IGFBP7 (11715501_s_at) / RFU REEP3 (11722064_at) / Fold change /veh REEP3 (11722064_at) / RFU IGLL1 (11728026_x_at) / Fold change /veh IGLL1 (11728026_x_at): dose or concentration left out as unconfirmed
Details: ProbeSet 11729173_a_at; LIST D

SMILES: Nc1ncn([C@@H]2O[C@H](CO)[C@@H](O)[C@H]2O)c(=O)n1 [azacitidine]
- RFU, SKA2: 326.42 RFU
